# Data taken from article PMC12656565, “In Vitro and Ultrastructural Evaluation of the Cytotoxic and Antileishmanial Activities of Thiosemicarbazone Compounds Against Promastigotes and Axenic Amastigotes of Leishmania infantum” (Tropical Medicine and Infectious Disease, 2025).
# Peptide text beside a SMILES is read from it. * marks the point of attachment. Cbz = O=C(OCc1ccccc1)*
# Key:
# [1] = test system: L. infantum promastigote cells; assay: Mitochondrial membrane potential (Rhodamine 123, flow cytometry); type: cell-based, Leishmania infantum
# Method: To evaluate the effects of compounds on the mitochondrial membrane potential (ΔΨm) of Leishmania infantum, the cationic probe Rhodamine 123 (Rod 123) was used through quantitative flow cytometry analysis. […] After incubation, cells were centrifuged at 3000× g for 5 min, and supernatants discarded. […] Hydrogen peroxide (H2O2) at 1 μM was used as positive control, previously described in the literature as an inducer of mitochondrial potential loss. Cells were analyzed by flow cytometry on the FACSCalibur equipment (Becton & Dickinson, San José, CA, USA), with excitation at 488 nm and detection at 505/534 nm. Fifty thousand events per sample were acquired. Data were expressed as percentage of cells stained with Rhodamine 123 for each tested condition. Fluorescence variation was quantified by Variation Index (VI), calculated by the equation: VI = (MT − MC)/MC, where MT corresponds to the median fluorescence of treated cells and MC to the median of control cells (untreated).
# [2] = test system: Leishmania infantum promastigote forms (MHOM/BR/BH46); assay: In vitro leishmanicidal activity against promastigotes (Neubauer chamber counting); type: cell-based; conditions: for IC50 / inhibition at 20 µM: Leishmania infantum; for IC50: 72 h, L. infantum promastigotes, linear regression; for inhibition at 20 µM: lowest concentration tested in the promastigote series (20–400 µM)
# Method: For this study, the Leishmania infantum strain MHOM/BR/BH46 was used. It was maintained by cryopreservation in liquid nitrogen, using a preservation solution containing 10% dimethyl sulfoxide (DMSO) and 90% fetal bovine serum (FBS). For the experiments, the strain was reactivated and maintained in continuous culture in modified Schneider’s Drosophila medium, supplemented with 10% heat-inactivated fetal bovine serum (FBS), at a temperature of 26 °C, with subcultures performed every 72 h. The promastigote form was used for the in vitro assays, with growth observed and monitored through parasite counting using a Neubauer chamber (iNCYTO CChip DHC-N01, Cheonan-Si, Republic of Korea).
# The in vitro leishmanicidal activity of compounds LT-70, LT-73, LT-75, LT-89, and amphotericin B was determined as described by Aliança et al., with adaptations. Promastigote forms of L. infantum (MHOM/BR/BH46) were maintained in Schneider’s medium supplemented with 10% fetal bovine serum (FBS), incubated at 26 °C. For experiments, parasites were subcultured and grown for 72 h until reaching stationary phase. Subsequently, they were adjusted to a concentration of 1 × 10^6 parasites/mL. Cultures were then incubated in the presence of the tested compounds (20–400 µM) and Amphotericin B was tested from 0.01 to 1.0 µM in preliminary range-finding assays, confirming an IC50 of 0.04 µM, both prepared in DMSO (final DMSO concentration < 1%), as well as a control containing only the diluent. Analyses were performed in technical triplicate and biological duplicate. Cultures were maintained at 26 °C for 72 h, with daily parasite counts performed using a Neubauer chamber. The median inhibitory concentration (IC50) was determined after 72 h by linear regression using SPSS 25.0 software for Mac. All assays were performed in 24-well flat-bottom plates (2 mL final volume per well), with parasite inoculum verified by Neubauer counting chamber. The compounds LT-73 and LT-75 were selected based on their best leishmanicidal performance and respective selectivity index (SI), calculated as the ratio between the cytotoxic concentration for 50% of host cells (CC50) and the IC50 obtained for parasites. […] IC50 and CC50 values were obtained by linear regression using […]. This method has been validated in our previous thiosemicarbazone publications. Each assay was conducted in triplicate across two independent biological experiments performed on separate days to ensure reproducibility and minimize batch effects. MTT was selected for consistency with the validated thiosemicarbazone protocol by Jacob et al., ensuring methodological coherence with prior data.
# J774.A1 macrophages = test system: J774.A1 macrophages; design: method as in PMID 33590474; conditions: highest concentration tested 75 µM, previously determined in collaboration with Jacob et al., ref [20]; cited from earlier work
# [3] = test system: axenic amastigote forms of Leishmania amazonensis; design: method as in ref [22] Oliveira et al.; conditions: ref [22] Oliveira et al.; cited from earlier work
# Leishmania infantum = test system: Leishmania infantum; design: method as in PMID 35861942, PMID 14982775; conditions: against Leishmania infantum, similar in vitro conditions; ref [25],[29]; cited from earlier work
SMILES,IC50 [2] [µM],inhibition at 20 µM [2] [%],CC50 (J774.A1 macrophages) [µM],also measured
"OO [Hydrogen Peroxide (H2O2), Hydrogen peroxide, reference compound]",–,–,–,"Mean (Rho 123 fluorescence) ([1]; positive control, H2O2 at 1 μM): 581 ± 35; Variation (Variation Index, VI = (MT − MC)/MC) ([1]; positive control, H2O2 at 1 μM): −0.18 ± 0.08; Variability Index (VI), range ([1]; range over the tested concentrations (1× and 2× IC50; H2O2 control)): −0.018 to −0.73"
N#Cc1ccc2[nH]cc(/C=N/NC(=S)Nc3ccccc3)c2c1 [LT-70],< 20,100,64 ± 5,–
C=CCNC(=S)N/N=C\c1c[nH]c2c(C)cccc12 [LT-89],< 20,100,60 ± 4,SI (CC50/IC50) ([2]; CC50 J774 macrophages / IC50 promastigotes): 4.3
CC(C)[C@H](NC(=O)OCc1ccccc1)C(=O)N[C@H](C=O)Cc1ccccc1 [MDL28170] (Cbz-Val-Phe-aldehyde),–,–,–,IC50 [3]: 13.5 µM
CCCCCCCCCCCCCCCCOP(=O)([O-])OCC[N+](C)(C)C [miltefosine],–,–,–,IC50 (Leishmania infantum): 8 to 12 µM
